Entries after “also recorded” stand apart in the source; their conditions may differ. Square brackets hold non-standard residues; d marks the D form. Peptide text beside a SMILES is read from it. * marks the point of attachment. Nva = CCC[C@H](N)C(=O)O; Cbz = O=C(OCc1ccccc1)*; CH2F = FC*
Experiments:
[1] = RA patients; cited from earlier work
[2] = tested on: IL-6 gene; assay: RT-PCR of IL-6 gene transcription in MH7A cells; type: cell-based
Description: (§1) Total RNA was prepared using TRIzol (Invitrogen). Reverse transcription PCR (RT-PCR) was performed (Cheung, et al., Cancer Lett., 246:122-8 (2007)). RNA was reverse transcribed with the Superscript™ III First-Strand Synthesis System (Invitrogen) according to the manufacturer's instructions. Reaction mixes contained 1.2 μL of cDNA, 18 μL of Platinum® PCR Supermix (Invitrogen) and 200 nM of each pair of primers.

[3] = tested on: JNK; assay: Western blot of JNK phosphorylation in MH7A cells; type: cell-based
Description: (§2) Western blot analysis was performed (Pang et al., Gastroenterology, 132:1088-103 (2007)). Cell lysis and protein collection was conducted according to standard protocols. Protein samples (typically 30 μg) were separated by sodium dodecyl sulfate-polyacrylamide gel electrophoresis (SDS-PAGE) in 12% resolving gel and electro-transferred to nitrocellulose membranes (400 mA for 2 hours). After blocking with tris-buffered saline-TWEEN (TBS-T) containing 5% non-fat milk at room temperature for 30 minutes, membranes were incubated with the primary antibody and TBS-T with 5% bovine serum albumin at 4° C. overnight. The membranes were then washed thrice with TBS-T, and incubated for 1 hour at room temperature with 1:2000 horseradish peroxidase-conjugated secondary antibodies (Amersham-Pharmacia Biotechnology, Piscataway, N.J., USA). Immunoreactive bands were detected with chemiluminescence using the SuperSignal West Pico Chemiluminescent Substrate (Pierce Chemical Co., Rockford, Ill., USA), and visualized on X-ray films. Densitometric quantification of band signals was performed using ImageJ 1.36b software (National Institutes of Health, USA). All experiments were performed in triplicates.

[4] = tested on: p53; assay: Western blot of p53 phosphorylation at serine 46 in MH7A cells; type: cell-based; conditions: 5 μM As2O3
[5] = tested on: MH7A cells
Description: Cells were maintained in RPMI1640 (Invitrogen, Carlsbad, Calif., USA) supplemented with 10% heat inactivated fetal bovine serum (FBS; Invitrogen) in 5% CO2 at 37° C.
Cellular proliferation was assessed by an MTT assay (GE Healthcare, Piscataway, N.J., USA) (Cheung et al., Cancer Lett., 246:122-8 (2007)). Cells (2×10^4 cells/well in 96-well plates) were incubated overnight before treatment with controls or reagents for 2-6 days. The treated cells were then incubated with the MTT labeling solution (10 μL/well). After 4 hours of incubation, cells were lyzed, and formazan crystals solubilized overnight at 37° C. Formazean signal was detected at 570 nm (μ-Quant™ microplate spectrometer, Bio-Tek Instruments Inc., VT, USA). Data obtained were analyzed by the KC junior software (BLD Science, Garner, N.C., USA).

[6] = tested on: gp130; assay: Western blot of gp130 expression in MH7A cells; type: cell-based; conditions: for effect of pre-incubation with inhibitor on As2O3-induced decrease in gp130: NH4Cl 2.5 mM, MG115 10 μM, Z-VAD-FMK 25 μM, As2O3 5 μM
Description: as §2

[7] = tested on: caspase 3; assay: Western blot of caspase 3 activation in MH7A cells; type: cell-based
Description: as §2

[8] = tested on: MH7A cells; assay: Cell cycle analysis by PI staining and flow cytometry; type: cell-based; conditions: 5 μM As2O3, 24 hours
Description: Cell cycle analysis was performed as described (Pang et al., J. Pathol. 210:19-25, (2006)), Cells were trypsinized, washed twice with ice-cold PBS, re-suspended in 500 μL PBS, and stained with PI for 10 minutes on ice (DNA Prep™, Beckman Coulter). Cell cycle was determined by flow cytometry, and data analyzed by the WinMDI 2.8 software.

[9] = oral As2O3; cited from earlier work
[10] = tested on: NFκB; assay: Western blot of NFκB expression in MH7A cells; type: cell-based; conditions: dose (24 hours) and time (5 μM) dependence
Description: as §2

[11] = tested on: gp130; assay: Immunoprecipitation of gp130 and Western blot with anti-ubiquitin antibodies FK1 and FK2; type: cell-based; conditions: 100 μM As2O3, 0, 4 or 6 hours; FK2 positive, FK1 negative
Description: Immunoblot analysis was performed with gp130 ubiquitinylation. MH7A cells are incubated with 100 μM As2O3 for 0, 4 or 6 hours. Antibody to gp130 is used for immunoprecipitation (IP) of total cell lysates, followed by Western blot analysis with anti-ubiquitin antibodies FK1 and FK2. IP with non-immune rabbit serum (NIS) serves as control.
Immunoprecipitation was performed by standard procedures (Pang et al., Gastroenterology, 132:1088-103 (2007)). Cells were washed with ice-cold PBS supplemented with 1 mM sodium orthovanadate and Complete protease inhibitor cocktail (Complete; Roche Molecular Biochemicals), and lysed with buffer (50 mM Tris-HCl, pH: 7.5, 100 mM NaCl, 1% Triton X-100, 4 μg/mL aprotinin, 100 μM phenylmethylsulfonyl fluoride, 200 μM sodium orthovanadate, 2 μg/mL leupeptin, 1 mM ditheiothreitol, and 1× Complete) at 4° C. for 15 minutes. Lysates were collected and centrifuged. Proteins were assayed (Bio-Rad Protein Assay Kit, Philadelphia, Pa., USA), and adjusted to 1 μg/μL (typically 800 to 1000 μg). Immunoprecipitation was preformed by incubating protein samples with the appropriate antibodies (typically 4 μg) or control non-immune sera at 4° C. overnight with gentle shaking. […] The immunoprecipitates were then analyzed by Western blotting in triplicates

[12] = tested on: IL-6 receptor α gene; assay: RT-PCR of IL-6 receptor α gene transcription in MH7A cells; type: cell-based; conditions: semi-quantitative RT-PCR
Description: as §1

[13] = oral As2O3; cited from earlier work; remark: listed apart in the source
[14] = tested on: GP130 gene; assay: RT-PCR and Q-PCR of gp130 gene transcription in MH7A cells; type: cell-based
Description: as §1
Quantitative-RT-PCR (Q-PCR) for GP130 was performed with the Assays-on-Demand™ Gene Expression System (AssayID: Hs00174360_m1, PE Biosystems, Foster City, Calif., USA) according to the manufacturer's instructions. The reaction mix contained 2 μL of cDNA, 10 μL of TaqMan® Universal PCR Master Mix, 1 μL of Assay-on-Demand™ Gene Expression Assay Mix, and RNase-free water to a volume of 20 μL. Q-PCR was performed with the ABI Prism 7700 Sequence Detector (PE Biosystems). […] Real-time PCR amplification data were collected continuously and analyzed with the ABI Prism 7700 Sequence Detector. Relative gene expression to the control calibrator, and normalized to the internal control, was calculated by the ΔΔCT method (ABI user bulletin number 2, PE Biosystem) (Cheung, et al., Cancer Lett., 246:122-8 (2007)). […]

[15] = tested on: MH7A cells; assay: Annexin V apoptosis assay (flow cytometry); type: cell-based; conditions: As2O3 5 μM, representative assay
Description: For apoptosis assay, 1×10^6 cells were incubated in 10-cm plates overnight, before treatment with controls or reagents for 24 hours. Cells were then trypsinized, washed twice with ice-cold phosphate buffered saline (PBS), re-suspended in 500 μL of binding buffer, and incubated on ice for 10 minutes with FITC-conjugated annexin-V and propidium iodide (PI) (Immunotech; Fullerton, Calif., USA). Apoptotic cells (annexin-V-positive, PI-negative) were enumerated by flow cytometry in triplicates (Epics, Beckman Coulter, Fullerton, Calif., USA) after appropriate color compensation. Data analysis was performed by the WinMDI 2.8 software (The Scripps Research Institute, La Jolla, Calif., USA).

[16] = tested on: IL-6 receptor α; assay: Western blot of IL-6 receptor α expression in MH7A cells; type: cell-based
Description: as §2

Molecule: infliximab
- clinical effect in RA [1]: significant improvement in joint inflammation and halts the progression of joint damage

Molecule: Arsenic trioxide [As2O3]
- IL-6 gene transcription [2]: did not affect IL-6 gene transcription
- JNK phosphorylation ([3]; 5 μM As2O3, 0-24 hours): significant increases in JNK phosphorylation
- p53 phosphorylation at serine 46 [4]: significantly increased p53 phosphorylation at serine 46
- inhibition of growth of MH7A cells ([5]; increasing concentrations, 24, 48 or 72 hours): dose and time dependent inhibition of growth
- IC50 ([5]; read-out: 50% inhibitory concentration, growth of MH7A cells, MTT assay, 24, 48 or 72 hours): ~5 µM
- gp130 protein level ([6]; Western blot): dose and time dependent decrease of gp130
- activation of caspase 3 [7]: dose and time dependent activation of caspase 3
- cell cycle arrest [8]: significant G2M arrest
- QT prolongation [9]: minimal QT prolongation
- level of NFκB [10]: significantly decreased the level of NFκB
- gp130 ubiquitination [11]: induced mono-ubiquitination of gp130; also recorded: gp130 is mono-ubiquitinated
- IL-6 receptor α gene transcription [12]: no effect on the transcription of both genes
- efficacy in relapsed acute promyelocytic leukemia [13]: highly efficacious
- GP130 gene transcription ([14]; real-time quantitative PCR, 5 μM As2O3, 0-24 hours): no effect on GP130 gene transcription
- gp130 gene transcription ([14]; semi-quantitative RT-PCR): no effect on the transcription of both genes
- annexin-V positive, propidium iodide negative (apoptotic) cells [15]: 38.2%
- annexin-V positive, propidium iodide positive (dead) cells [15]: 5.76%
- IL-6 receptor α protein level [16]: remaining unchanged

Molecule: Cl.N [NH4Cl, ammonium chloride]
- effect of inhibitor on As2O3-induced JNK phosphorylation/activation ([3]; SP600125 30 μM, NH4Cl 2.5 mM): almost totally abrogated
- effect of pre-incubation with inhibitor on As2O3-induced decrease in gp130 [6]: significantly prevented

Molecule: CCC[C@@H](C=O)NC(=O)[C@H](CC(C)C)NC(=O)[C@H](CC(C)C)NC(=O)OCc1ccccc1 [MG115] (Cbz-Leu-Leu-[Nva]-aldehyde)
- effect of pre-incubation with inhibitor on As2O3-induced decrease in gp130 [6]: had no effect

Molecule: IL-6: recombinant human IL-6 (Peprotech)
- effect of exogenous IL-6 on proliferation of MH7A cells ([5]; 72 hours): did not increase the proliferation

Molecule: COC(=O)C[C@H](NC(=O)[C@H](C)NC(=O)[C@@H](NC(=O)OCc1ccccc1)C(C)C)C(=O)CF [Z-VAD-FMK] (Cbz-Val-Ala-Asp(OMe)-CH2F)
- effect of pre-incubation with inhibitor on As2O3-induced decrease in gp130 [6]: had no effect

Molecule: tocilizumab
- clinical effect in RA [1]: significant control of symptoms

From patent US10092595B2, “Compositions and methods for treating inflammatory arthritis” (priority 2009, dated 2018)
